According to patent publication US4301177A, “(3-Methyl-2-butenyl)propanedioic acid mono (1,2-diphenylhydrazide) and salts thereof” (Istituto de Angeli S.p.A., priority 1979, dated 1981):
Where a name gives a salt, the structure may show the parent alone. Read-outs that look alike come from different tables or passages of the source.

Tested on: rats
Format: in vivo, male Sprague-Dawley rats
Details: 40 mg/kg oral
Description: In the present study the test compounds were administered perorally by means of a stomach tube as an aqueous suspension in 5% acacia gum at a constant volume of 10 ml/kg to male Swiss mice and male Sprague-Dawley rats. Control rats and mice were given a corresponding volume of the aqueous suspension medium. The results were statistically evaluated by Dunnett's test (C. V. Dunnett.: J.A. Stat. Ass., 40, 1096, 1955).
1. Anti-inflammatory activity
The anti-inflammatory activity was determined in the carrageenin edema test according to Winter et al., (see C. A. Winter, E. A. Risley, G. W. Muss: J. Pharm. Exp. Ther., 141, 369, 1963).
The edema was provoked in rats by a subplantar injection into the right hind paw of 0.1 ml of a 1% carrageenin suspension in sterile saline solution.
Rats were treated orally with the test compound 60 minutes before the injection of carrageenin. The volume of the foot was measured with a mercury differential volume-meter immediately before injection of the phlogistic agent, and 3 and 5 hours thereafter. The anti-inflammatory activity was evaluated as percent edema inhibition of treated rats in comparison with the controls, according to the following formula: [formula]

With `CCCCC(C(=O)O)C(=O)N(Nc1ccccc1)c1ccccc1` (centres unmarked) [B, Calcium salt of butylpropanedioic acid mono(1,2-diphenylhydrazide), reference compound] as the compound, how does the Edema volume, mean ± standard deviation (3 h after carrageenin) read?
The Edema volume, mean ± standard deviation was 1.42 ± 0.27 mL.

What about the Edema volume, mean ± standard deviation (5 h after carrageenin) of the same compound?
The Edema volume, mean ± standard deviation was 2.06 ± 0.42 mL.
